Legend:
AMPA receptors = assay: AMPA receptor binding test (electrophysiological verification) in vitro; assay type: cell-based; settings: FIG. 5
[1] = system: WKY rat which was the depression model rat; assay: Forced swimming test using rat; assay type: in vivo; settings: FIG. 10
Protocol: In a forced swimming test, AMPA receptor-binding compounds K-2 and K-4 were dissolved in 100% DMSO (Nacalai Tesque, Inc. Japan) so as to have a concentration of 2.1 mM, were diluted with saline immediately before being administered (15% DMSO, 320 μM) and were intravenously administered to the rat with an administered amount of 5 μl/weight (g) such that the administered amount fell within a range of 1 mg/kg to 1.5 mg/kg.
In all animal experiments, the deliberation and the approval of the animal experiment committee in Yokohama City University were received (approval number: F-A-15-051). As rats, adult male Wistar rats which were 6 to 10 weeks old and Wistar Kyoto rats (WKY rats) which were depression model rats (Charles River, Japan) were used. In order to acquire a route for the repeated administration of K-2, a jugular vein cannula indwelling surgery was performed a week before the experiment. The rat was made to fall sleep with isoflurane (DS Pharma Animal Health, Japan), and thereafter, while anesthesia was maintained at an isoflurane concentration of 1.5% (air 2 L/minute), the jugular vein cannula indwelling surgery was performed. The skin of a neck was incised about 3 cm such that subcutaneous fat was opened, and thus a jugular vein was exposed. […]

[2] = system: AMPA receptors in the brain; assay: PET imaging in humans (healthy persons); assay type: in vivo, human; settings: about 370 MBq i.v.
Protocol: PET imaging was performed on two human subjects. […] Absorption correction CT imaging was performed for about one minute, and then [^11C] K-2 of about 370 MBq was administered, as a PET drug, intravenously over one minute. Thereafter, imaging was performed for 120 minutes. For the imaging, a PET/CT device “Aquiduo” (Toshiba Medical Systems Corporation) was used. In list data which was collected, dynamic images were reconstructed by an OS-EM method.
(§1) The reconstructed image was analyzed with the PMOD image analysis software (PMOD technologies) by integrating VOIs including a plurality of regions of frontal lobe, dentate cortex, hippocampus, amygdala, putamen, cerebellum, bridge and the like with one formed on a template MRI image. […]
as §1, with “image. As a calculation value used in quantitative determination, % SUV (% of standardized uptake value) was used.” for “image.”

Structure (SMILES) | binding affinity to the AMPA receptors (AMPA receptors) | immobile time, K-4 compared with K-2 ([1]; chronic administration, 1 mg/kg) | immobile time, chronic administration experiment ([1]; i.v. for 7 days, 1 mg/kg to 1.5 mg/kg, compared with 15% DMSO) | nonspecific accumulation caused by PET drug not bound to the AMPA receptors in the brain ([2]; between 30 and 60 minutes after administration, two human subjects) | uptake into the brain ([2]; healthy men, average 50 to 120 minutes, FIG. 12)
CN(C)C(=O)COc1c(F)cc(SCCN(C)S(=O)(=O)c2ccccc2)cc1F [Compound K-4, {4-[2-(benzenesulfonyl-methyl-amino)-ethylsulfanil]-2,6-difluoro-phenoxy}-N,N-dimethyl-acetamide] | indicated binding affinity | significantly lowers the immobile time instead of K-2 | significantly lowered | – | –
[11CH3]N(CCSc1cc(F)c(OCC(N)=O)c(F)c1)S(=O)(=O)c1ccccc1 [[^11C] K-2, [4-[2-(benzenesulfonyl-[^11C]methyl-amino)-ethylsulfanyl]-2,6-difluorophenoxy]-acetamide] | – | – | – | remarkably washed out | high

— US20200384134A1, “IMAGING METHOD OF AMPA RECEPTORS IN BRAIN OF PRIMATE ORGANISM, PROGRAM, DIAGNOSTIC AGENT, COMPANION DIAGNOSTIC AGENT, DRUG, SCREENING METHOD, INPUT TERMINAL, SERVER AND SYSTEM” (Public University Corporation Yokohama City University, priority 2017, published 2020)
